Laboratory results: patent publication US20090018111A1, “Novel Antimicrobial Medicament” (priority 2004, published 2009)
Where two headings read alike, the source gives them in different places.

Assays:
Test in all cases: Sensitivity test (agar dilution)
[1] = system: E. cloacae GN7471; type: cell-based, Enterobacter cloacae; details: Enterobacter cloacae
Outline: (§1)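 Each strain, cultured overnight at 37° C and adjusted to about 10^6 CFU/ml in BSG, was spotted (about 5 μl) on Mueller Hinton agar with twofold serial drug concentrations. Inhibition defines the MIC.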

[2] = system: C. freundii GN346; type: cell-based, Citrobacter freundii; details: Citrobacter freundii
Outline: as §1

[3] = system: P. aeruginosa IFO3451; type: cell-based, Pseudomonas aeruginosa; details: Pseudomonas aeruginosa
Outline: as §1

[4] = system: P. aeruginosa TL-2666; type: cell-based, Pseudomonas aeruginosa; details: Pseudomonas aeruginosa
Outline: as §1

[5] = system: P. aeruginosa TL-2667; type: cell-based, Pseudomonas aeruginosa; details: Pseudomonas aeruginosa
Outline: as §1

[6] = system: M. catarrhalis ATCC25238; type: cell-based, Moraxella catarrhalis; details: Moraxella catarrhalis
Outline: as §1

[7] = system: M. catarrhalis ATCC8176; type: cell-based, Moraxella catarrhalis; details: Moraxella catarrhalis
Outline: as §1

## C[C@H]1C=C(c2csc(SC3=C(C(=O)O)N4C(=O)[C@H]([C@@H](C)O)[C@H]4[C@H]3C)n2)CN1 [SM, (4R,5S,6S)-6-[(1R)-1-Hydroxyethyl]-4-methyl-3-({4-[(5S)-5-methyl-2,5-dihydro-1H-pyrrol-3-yl]-1,3-thiazol-2-yl}sulfanyl)-7-oxo-1-azabicyclo[3.2.0]hept-2-ene-2-carboxylic acid]
[1]; GN7471, Concomitant (CPFX:SM = 1:1), E. cloacae GN7471, read-out: MIC concomitant
  MIC: 0.016 µg/mL
[1]; GN7471, Concomitant (DRPM:SM = 1:1), E. cloacae GN7471, read-out: MIC concomitant
  MIC: 0.031 µg/mL
[1]; GN7471, Concomitant (IPM:SM = 1:1), read-out: MIC
  MIC: 0.125 µg/mL
[1]; GN7471, Concomitant (MEPM:SM = 1:1), read-out: MIC
  MIC: 0.031 µg/mL
[1]; GN7471, Concomitant (MEPM:SM = 1:2), read-out: MIC
  MIC: 0.063 µg/mL
[1]; GN7471, Concomitant (MEPM:SM = 1:4), read-out: MIC
  MIC: 0.125 µg/mL
[1]; GN7471, Concomitant (PAPM:SM = 1:1), E. cloacae GN7471, read-out: MIC concomitant
  MIC: 0.125 µg/mL
[1]; GN7471, Concomitant (PIPC:SM = 1:1), E. cloacae GN7471, read-out: MIC concomitant
  MIC: 8 µg/mL
[1]; GN7471, Concomitant drug (MEPM:SM = 2:1), read-out: MIC
  MIC: 0.016 µg/mL
[1]; GN7471, alone, read-out: MIC
  MIC: 8 µg/mL
[1]; GN7471, drug alone, E. cloacae GN7471, read-out: MIC alone
  MIC: 8 µg/mL
[2]; GN346, Concomitant (AZT:SM = 1:1), C. freundii GN346, read-out: MIC concomitant
  MIC: 8 µg/mL
[2]; GN346, Concomitant (BIPM:SM = 1:1), C. freundii GN346, read-out: MIC concomitant
  MIC: 0.125 µg/mL
[2]; GN346, Concomitant (CAZ:SM = 1:1), C. freundii GN346, read-out: MIC concomitant
  MIC: 8 µg/mL
[2]; GN346, Concomitant (CPFX:SM = 1:1), C. freundii GN346, read-out: MIC concomitant
  MIC: 0.008 µg/mL
[2]; GN346, Concomitant (DRPM:SM = 1:1), C. freundii GN346, read-out: MIC concomitant
  MIC: 0.063 µg/mL
[2]; GN346, Concomitant (IPM:SM = 1:1), read-out: MIC
  MIC: 0.25 µg/mL
[2]; GN346, Concomitant (MEPM:SM = 1:1), read-out: MIC
  MIC: 0.031 µg/mL
[2]; GN346, Concomitant (MEPM:SM = 1:2), read-out: MIC
  MIC: 0.063 µg/mL
[2]; GN346, Concomitant (MEPM:SM = 1:4), read-out: MIC
  MIC: 0.125 µg/mL
[2]; GN346, Concomitant (PAPM:SM = 1:1), C. freundii GN346, read-out: MIC concomitant
  MIC: 0.25 µg/mL
[2]; GN346, Concomitant (PIPC:SM = 1:1), C. freundii GN346, read-out: MIC concomitant
  MIC: 8 µg/mL
[2]; GN346, Concomitant drug (MEPM:SM = 2:1), read-out: MIC
  MIC: 0.016 µg/mL
[2]; GN346, alone, read-out: MIC
  MIC: 8 µg/mL
[2]; GN346, drug alone, C. freundii GN346, read-out: MIC alone
  MIC: 8 µg/mL
[3]; IFO3451, Concomitant (AZT:SM = 1:1), P. aeruginosa IFO3451, read-out: MIC concomitant
  MIC: 2 µg/mL
[3]; IFO3451, Concomitant (BIPM:SM = 1:1), P. aeruginosa IFO3451, read-out: MIC concomitant
  MIC: 0.25 µg/mL
[3]; IFO3451, Concomitant (CAZ:SM = 1:1), P. aeruginosa IFO3451, read-out: MIC concomitant
  MIC: 2 µg/mL
[3]; IFO3451, Concomitant (CPFX:SM = 1:1), P. aeruginosa IFO3451, read-out: MIC concomitant
  MIC: 0.125 µg/mL
[3]; IFO3451, Concomitant (DRPM:SM = 1:1), P. aeruginosa IFO3451, read-out: MIC concomitant
  MIC: 0.25 µg/mL
[3]; IFO3451, Concomitant (IPM:SM = 1:1), read-out: MIC
  MIC: 0.5 µg/mL
[3]; IFO3451, Concomitant (MEPM:SM = 1:1), read-out: MIC
  MIC: 0.5 µg/mL
[3]; IFO3451, Concomitant (MEPM:SM = 1:2), read-out: MIC
  MIC: 1 µg/mL
[3]; IFO3451, Concomitant (MEPM:SM = 1:4), read-out: MIC
  MIC: 2 µg/mL
[3]; IFO3451, Concomitant (PAPM:SM = 1:1), P. aeruginosa IFO3451, read-out: MIC concomitant
  MIC: 2 µg/mL
[3]; IFO3451, Concomitant (PIPC:SM = 1:1), P. aeruginosa IFO3451, read-out: MIC concomitant
  MIC: 8 µg/mL
[3]; IFO3451, Concomitant drug (MEPM:SM = 2:1), read-out: MIC
  MIC: 0.25 µg/mL
[3]; IFO3451, alone, read-out: MIC
  MIC: 8 µg/mL
[3]; IFO3451, drug alone, P. aeruginosa IFO3451, read-out: MIC alone
  MIC: 8 µg/mL
[4]; TL2666, Concomitant (AZT:SM = 1:1), P. aeruginosa TL-2666, read-out: MIC concomitant
  MIC: 8 µg/mL
[4]; TL2666, Concomitant (BIPM:SM = 1:1), P. aeruginosa TL-2666, read-out: MIC concomitant
  MIC: 1 µg/mL
[4]; TL2666, Concomitant (CAZ:SM = 1:1), P. aeruginosa TL-2666, read-out: MIC concomitant
  MIC: 8 µg/mL
[4]; TL2666, Concomitant (CPFX:SM = 1:1), P. aeruginosa TL-2666, read-out: MIC concomitant
  MIC: 2 µg/mL
[4]; TL2666, Concomitant (DRPM:SM = 1:1), P. aeruginosa TL-2666, read-out: MIC concomitant
  MIC: 1 µg/mL
[4]; TL2666, Concomitant (IPM:SM = 1:1), read-out: MIC
  MIC: 1 µg/mL
[4]; TL2666, Concomitant (MEPM:SM = 1:1), read-out: MIC
  MIC: 1 µg/mL
[4]; TL2666, Concomitant (MEPM:SM = 1:2), read-out: MIC
  MIC: 2 µg/mL
[4]; TL2666, Concomitant (MEPM:SM = 1:4), read-out: MIC
  MIC: 4 µg/mL
[4]; TL2666, Concomitant (PAPM:SM = 1:1), P. aeruginosa TL-2666, read-out: MIC concomitant
  MIC: 8 µg/mL
[4]; TL2666, Concomitant (PIPC:SM = 1:1), P. aeruginosa TL-2666, read-out: MIC concomitant
  MIC: 16 µg/mL
[4]; TL2666, Concomitant drug (MEPM:SM = 2:1), read-out: MIC
  MIC: 0.5 µg/mL
[4]; TL2666, alone, read-out: MIC
  MIC: 16 µg/mL
[4]; TL2666, drug alone, P. aeruginosa TL-2666, read-out: MIC alone
  MIC: 16 µg/mL
[5]; TL2667, Concomitant (AZT:SM = 1:1), P. aeruginosa TL-2667, read-out: MIC concomitant
  MIC: 8 µg/mL
[5]; TL2667, Concomitant (BIPM:SM = 1:1), P. aeruginosa TL-2667, read-out: MIC concomitant
  MIC: 4 µg/mL
[5]; TL2667, Concomitant (CAZ:SM = 1:1), P. aeruginosa TL-2667, read-out: MIC concomitant
  MIC: 8 µg/mL
[5]; TL2667, Concomitant (CPFX:SM = 1:1), P. aeruginosa TL-2667, read-out: MIC concomitant
  MIC: 2 µg/mL
[5]; TL2667, Concomitant (DRPM:SM = 1:1), P. aeruginosa TL-2667, read-out: MIC concomitant
  MIC: 2 µg/mL
[5]; TL2667, Concomitant (IPM:SM = 1:1), read-out: MIC
  MIC: 8 µg/mL
[5]; TL2667, Concomitant (MEPM:SM = 1:1), read-out: MIC
  MIC: 4 µg/mL
[5]; TL2667, Concomitant (MEPM:SM = 1:2), read-out: MIC
  MIC: 4 µg/mL
[5]; TL2667, Concomitant (MEPM:SM = 1:4), read-out: MIC
  MIC: 8 µg/mL
[5]; TL2667, Concomitant (PAPM:SM = 1:1), P. aeruginosa TL-2667, read-out: MIC concomitant
  MIC: 16 µg/mL
[5]; TL2667, Concomitant (PIPC:SM = 1:1), P. aeruginosa TL-2667, read-out: MIC concomitant
  MIC: 16 µg/mL
[5]; TL2667, Concomitant drug (MEPM:SM = 2:1), read-out: MIC
  MIC: 2 µg/mL
[5]; TL2667, alone, read-out: MIC
  MIC: 16 µg/mL
[5]; TL2667, drug alone, P. aeruginosa TL-2667, read-out: MIC alone
  MIC: 16 µg/mL
[6]; ATCC25238, Concomitant (AZT:SM = 1:1), M. catarrhalis ATCC25238, read-out: MIC concomitant
  MIC: ≤ 0.002 µg/mL
[6]; ATCC25238, Concomitant (BIPM:SM = 1:1), M. catarrhalis ATCC25238, read-out: MIC concomitant
  MIC: ≤ 0.002 µg/mL
[6]; ATCC25238, Concomitant (CAZ:SM = 1:1), M. catarrhalis ATCC25238, read-out: MIC concomitant
  MIC: ≤ 0.002 µg/mL
[6]; ATCC25238, Concomitant (CPFX:SM = 1:1), M. catarrhalis ATCC25238, read-out: MIC concomitant
  MIC: ≤ 0.002 µg/mL
[6]; ATCC25238, Concomitant (DRPM:SM = 1:1), M. catarrhalis ATCC25238, read-out: MIC concomitant
  MIC: ≤ 0.002 µg/mL
[6]; ATCC25238, Concomitant (IPM:SM = 1:1), read-out: MIC
  MIC: ≤ 0.002 µg/mL
[6]; ATCC25238, Concomitant (MEPM:SM = 1:1), read-out: MIC
  MIC: ≤ 0.016 µg/mL
[6]; ATCC25238, Concomitant (MEPM:SM = 1:2), read-out: MIC
  MIC: ≤ 0.031 µg/mL
[6]; ATCC25238, Concomitant (MEPM:SM = 1:4), read-out: MIC
  MIC: ≤ 0.063 µg/mL
[6]; ATCC25238, Concomitant (PAPM:SM = 1:1), M. catarrhalis ATCC25238, read-out: MIC concomitant
  MIC: ≤ 0.002 µg/mL
[6]; ATCC25238, Concomitant (PIPC:SM = 1:1), M. catarrhalis ATCC25238, read-out: MIC concomitant
  MIC: ≤ 0.002 µg/mL
[6]; ATCC25238, Concomitant drug (MEPM:SM = 2:1), read-out: MIC
  MIC: ≤ 0.008 µg/mL
[6]; ATCC25238, drug alone, M. catarrhalis ATCC25238, read-out: MIC alone
  MIC: ≤ 0.002 µg/mL
[7]; ATCC8176, Concomitant (AZT:SM = 1:1), M. catarrhalis ATCC8176, read-out: MIC concomitant
  MIC: ≤ 0.002 µg/mL
[7]; ATCC8176, Concomitant (BIPM:SM = 1:1), M. catarrhalis ATCC8176, read-out: MIC concomitant
  MIC: ≤ 0.002 µg/mL
[7]; ATCC8176, Concomitant (CAZ:SM = 1:1), M. catarrhalis ATCC8176, read-out: MIC concomitant
  MIC: ≤ 0.002 µg/mL
[7]; ATCC8176, Concomitant (CPFX:SM = 1:1), M. catarrhalis ATCC8176, read-out: MIC concomitant
  MIC: ≤ 0.002 µg/mL
[7]; ATCC8176, Concomitant (DRPM:SM = 1:1), M. catarrhalis ATCC8176, read-out: MIC concomitant
  MIC: ≤ 0.002 µg/mL
[7]; ATCC8176, Concomitant (IPM:SM = 1:1), read-out: MIC
  MIC: ≤ 0.002 µg/mL
[7]; ATCC8176, Concomitant (MEPM:SM = 1:1), read-out: MIC
  MIC: ≤ 0.016 µg/mL
[7]; ATCC8176, Concomitant (MEPM:SM = 1:2), read-out: MIC
  MIC: ≤ 0.031 µg/mL
[7]; ATCC8176, Concomitant (MEPM:SM = 1:4), read-out: MIC
  MIC: ≤ 0.063 µg/mL
[7]; ATCC8176, Concomitant (PAPM:SM = 1:1), M. catarrhalis ATCC8176, read-out: MIC concomitant
  MIC: ≤ 0.002 µg/mL
[7]; ATCC8176, Concomitant (PIPC:SM = 1:1), M. catarrhalis ATCC8176, read-out: MIC concomitant
  MIC: ≤ 0.002 µg/mL
[7]; ATCC8176, Concomitant drug (MEPM:SM = 2:1), read-out: MIC
  MIC: ≤ 0.008 µg/mL
[7]; ATCC8176, drug alone, M. catarrhalis ATCC8176, read-out: MIC alone
  MIC: ≤ 0.002 µg/mL
